The values below come from PubChem BioAssay AID860 (Vanderbilt High Throughput Screening Facility, 2007).

pIC50: −log10 of the molar value.

For the assay, the target named is Muscarinic acetylcholine receptor M4 (Rattus norvegicus) (UniProt P08485). The experiment in a line: antagonism at rat M4 muscarinic receptor, dose response, counter-screen for M1 allosteric modulator project, cell-based, antagonist mode (AID 860). The conditions noted are these: rat M4-expressing cells, calcium fluorescence, antagonist mode at EC80 agonist. In general terms: The purpose of a counterscreen is to sort out artefacts and off-target activity.
Muscarinic acetylcholine receptor M4 (Rattus norvegicus), sequence (P08485 whole entry, looked up): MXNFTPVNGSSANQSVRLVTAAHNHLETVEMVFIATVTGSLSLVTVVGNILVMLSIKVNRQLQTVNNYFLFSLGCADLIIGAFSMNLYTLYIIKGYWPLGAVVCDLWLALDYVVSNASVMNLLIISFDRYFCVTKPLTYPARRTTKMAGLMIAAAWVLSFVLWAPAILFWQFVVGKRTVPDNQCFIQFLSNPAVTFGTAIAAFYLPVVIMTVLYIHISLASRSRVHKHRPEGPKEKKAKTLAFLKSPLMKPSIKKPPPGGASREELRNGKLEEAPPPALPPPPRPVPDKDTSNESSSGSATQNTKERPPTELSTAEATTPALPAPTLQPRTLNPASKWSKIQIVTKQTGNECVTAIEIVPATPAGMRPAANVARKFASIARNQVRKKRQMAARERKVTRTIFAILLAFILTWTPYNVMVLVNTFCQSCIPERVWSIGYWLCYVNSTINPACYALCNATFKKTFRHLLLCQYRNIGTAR
A word on the pIC50: it is −log10 of the IC50, conventionally taken in molar units. On to `Cc1ccc(C(=O)C2CCN(CC(=O)NC3CCCCC3)CC2)cc1`, for which the pIC50 is 7.14.

Consider `OC(CCN1CCCCC1)(c1ccccc1)c1ccccc1`, for which the pIC50 is 6.95.

On to `CN(C)CCCOC(=O)C1c2ccccc2Oc2ccccc21`, for which the pIC50 is 6.67.

With `O=C(NC1CCN(Cc2ccccc2)CC1)C1COc2ccccc2O1` (centres undefined), the pIC50 was 6.39.

Regarding `O=C(OCCN1CCCC1)C1(c2ccccc2)CCCC1`, the pIC50 was 6.49.

Consider `O=C(CC(c1ccccc1O)N1CCCCC1)N1CCCCC1` (centres undefined), for which the pIC50 was 6.12.

Take `CN(C)CCC=C1c2ccccc2CCc2ccccc21`: the pIC50 is 5.94.

For `CCN(CC)c1ccc(C2C(C(=O)OCCOC(C)C)=C(C)NC3=C2C(=O)CCC3)cc1` (centres undefined), the pIC50 is 6.09.

For the molecule `Cc1ccc2c(c1)NC(=O)C(CC(=O)Nc1ccc(CN3CCC(C)CC3)cc1)O2` (centres undefined), the pIC50 is 7.15.

As to `COC(=O)c1ccc(CSc2nc(C)nc3c2c(=O)n(C)c(=O)n3C)o1`, the negative-log IC50 (pIC50) was 5.89.

As for `CNCCCC1c2ccccc2C=Cc2ccccc21`, the pIC50 is 6.03.

Regarding `CC1CCN(Cc2ccc(NC(=O)CC3Oc4ccccc4NC3=O)cc2)CC1` (centres undefined), the pIC50 was 7.48.

`CN1CCC(=C2c3ccccc3C=Cc3ccccc32)CC1`: the pIC50 was 6.87.

Turning to `CCN1C(=O)/C(=C\N2CCCCCC2)SC1=S`, the pIC50 was 6.12.

Regarding `CCCC(CCC)C(=O)OC1C[C@H]2CC[C@@H](C1)[N+]2(C)C` (some centres undefined), the pIC50 is 7.53.

Regarding `Cc1nc2c(o1)CCc1ccccc1C2N1CCN(C)CC1` (centres undefined), the pIC50 was 7.42.

Take `CCC(C)N(CCNC(=O)CC1Oc2ccc(C)cc2NC1=O)C1CCCCC1` (centres undefined): the pIC50 was 6.24.

For the molecule `CN(C)CCOC(=O)C(c1ccccc1)C1(O)CCCC1` (centres undefined), the pIC50 was 7.93.

In the case of `CCN(CC)CCOC(=O)C(c1ccccc1)c1ccccc1`, the pIC50 is 6.13.

Regarding `CCC(C)N(CCNC(=O)CC1Oc2ccccc2NC1=O)C1CCCCC1` (centres undefined), the pIC50 is 6.07.

`CCN(CCCCOC(=O)c1ccc(OC)c(OC)c1)C(C)Cc1ccc(OC)cc1` (centres undefined): the pIC50 was 6.13.

As to `COc1ccc(N2C(=O)CSC23C(=O)N2CCCc4cccc3c42)cc1` (centres undefined), the pIC50 is 6.35.

Regarding `OC(CCN1CCCC1)(c1ccccc1)C1CCCCC1` (centres undefined), the pIC50 is 7.46.

For `O=C(CN1CCCC(O)C1)N1c2ccccc2Sc2ccc(C(F)(F)F)cc21` (centres undefined), the pIC50 was 6.01.
